Measured values as given in PubChem BioAssay (NCI).
Values joined by “and” are separate entries in the source; they are usually repeats but may differ in a detail not shown here. Equal values may be shown once.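 Each compound was tested at five concentrations against cells in 96-well plates for 48 hours. Abbreviation: GI50, concentration required for 50% inhibition of growth. At the TGI there is no net growth.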

Columns and labels:
Assay in all cases: NCI anticancer screen, dose series, 48 h
UO-31 renal = test system: UO-31 renal
COLO 205 colon = test system: COLO 205 colon
K-562 leukemia = test system: K-562 leukemia
SN12C renal = test system: SN12C renal
HS 578T breast = test system: HS 578T breast
SK-MEL-28 melanoma = test system: SK-MEL-28 melanoma
NCI/ADR-RES ovarian = test system: NCI/ADR-RES ovarian
T-47D breast = test system: T-47D breast

SMILES	GI50 (UO-31 renal) [µM]	TGI (UO-31 renal) [µM]	GI50 (COLO 205 colon) [µM]	TGI (COLO 205 colon)	GI50 (K-562 leukemia) [µM]	TGI (K-562 leukemia) [µM]	GI50 (SN12C renal) [µM]	TGI (SN12C renal) [µM]	TGI (HS 578T breast) [µM]	GI50 (SK-MEL-28 melanoma)	TGI (SK-MEL-28 melanoma) [µM]	TGI (NCI/ADR-RES ovarian) [µM]	GI50 (T-47D breast) [µM]	TGI (T-47D breast) [µM]	GI50 (HS 578T breast) [µM]	GI50 (NCI/ADR-RES ovarian) [µM]
COc1cccc(-c2cc(=O)c3cc(OC)ccc3[nH]2)c1	0.484	> 100	0.0741	0.48 µM and 0.411 µM	0.0288	0.393	0.398	47.7	0.885	0.612 µM and 0.0852 µM	> 100	0.445				
CN(C)CCCNC(=O)c1cc(NC(=O)c2cc(NC(=O)CCc3c[nH]c4ccccc34)cn2C)cn1C	> 100	> 100	> 100	> 100 µM	> 100	> 100	> 100	> 100	> 100	> 100 µM	> 100	> 100	> 100	> 100	> 100	> 100
CN(C)CCCOc1ccc(-c2ccc3ncc4c(c3c2)n(C2CCOCC2)c(=O)n4C)cn1	0.494	5.89	0.825	3.28 µM	9.07	43.4	2.12	20.9	10.1	1.97 µM	13	21.9	0.212	2.92	0.902	3.86
COc1ccc(-c2cc(=O)c3ccc(C)nc3[nH]2)cc1		> 100		> 100 µM		> 100		> 100	> 100		> 100	> 100		> 100		
COC(=O)c1c2c(c[n+]([O-])c1C)C(=O)C=CC2=O	1.52	3.03	1.85	3.93 µM	2.51	> 100	1.76	3.23	6.04	2.14 µM	3.97	14.4	2.33	6.85	2.17	3.27
COc1cc(/C=C2\C(=O)Nc3cc(C)c(O)cc32)cc(OC)c1OC	4.94	41.6	6.09	22.8 µM	1.67	10.4	6.07	23.1	9.93	7.59 µM	23	48.1	3.93	37.9	2.18	5.01
COc1cc(OC)cc(N(CCNC(C)C)c2ccc3ncc(-c4cnn(C)c4)nc3c2)c1	2.23	12.3	4.64	18.5 µM	2.11	10.8	3.96	15.9	6.19	10.9 µM	24.3	22	12.7	30.3	1.49	5.8
Cn1cc(C2=C(c3cn(CCCCN)c4ccccc34)C(=O)NC2=O)c2ccccc21	> 25	> 25	> 25	> 25 µM	> 25	> 25	> 25	> 25	> 25	> 25 µM	> 25	> 25	> 25	> 25	> 25	> 25
Cc1nn(-c2nc3ccccc3[nH]2)c(N)c1-c1ccc(Cl)cc1	3.79	> 100	4.17	> 100 µM	3.55	> 100	5.52	> 100	> 100	20.9 µM	> 100	> 100	3.42	> 100	9.24	4.84
CC(C)(C)C(=O)c1c(C(F)(F)F)n([O-])c2ccccc2[n+]1=O	0.342	0.729	0.616	1.73 µM	0.757	2.38	0.665	2.32	0.728	1.13 µM	6.12	2.36	0.597	1.78	0.185	0.571
COc1ccc(S(=O)(=O)N2CC(C)(C)CN(S(=O)(=O)c3ccc(OC)cc3)C2C(=O)NO)cc1	> 11.5	> 20	> 20	> 20 µM	> 20	> 20	> 20	> 20	> 20	> 20 µM	> 20	> 20	> 20	> 20	> 6.77	> 20
CNC(=O)c1ccc(N2CCN(Cc3ccc4nc(C)c(=O)[nH]c4c3F)CC2)c(F)n1	> 100	> 100	> 100	> 100 µM	> 100	> 100	57.7	> 100	> 100	> 100 µM	> 100	> 100	53.5	> 100	25.3	78.8
CC(C)=CCc1c(OC(=O)c2c(C)cc(O)cc2O)cc(CO)c(CO)c1O		34.4		33.8 µM		32.9		34.9	54.8		46.7	85.6		23.8		
CCCC(=O)NC1=C(Cl)C(=O)c2ccccc2C1=O		8.99		3.83 µM		7.43		31	> 39.9		17	> 23.2		8.02		
O=C(CC(c1ccccc1)c1c(O)c2ccccc2oc1=O)c1ccccc1 (centres undefined)		> 100		> 100 µM		> 100		> 100	> 100		> 100	> 100		> 100		
COC(=O)[C@@H](C)C[C@H](Cc1ccccc1)NC(=O)c1csc(CC[C@H](C(C)C)N(C)C(=O)[C@@H](NC(=O)[C@H]2CCCCN2C)C(C)C)n1	1.66	> 33.3	0.19	1.53 µM	0.131	> 33.3	0.435	> 33.3	15.8	1.45 µM	> 33.3	> 33.3			0.761	3.46
Nc1ccc(C2=NN(c3ccccc3)C(c3ccc(Cl)cc3)C2)cc1 (centres undefined)	1.54	3.06	2.15	4.54 µM			1.85	4.53	50.5	2.07 µM	4.68	19.4	2.06	4.48	5.7	3.64
COc1cc(-c2cc3ncccc3c3nc(N)c4cccnc4c23)cc(OC)c1OC	0.936	59.8	0.246	18.9 µM	0.169	14.5	1.01	> 100	> 100	2.93 µM	> 100	23.4	0.824	32	0.692	0.492

SMILES	GI50 (UO-31 renal) [µM]	TGI (UO-31 renal) [µM]	GI50 (COLO 205 colon) [µM]	TGI (COLO 205 colon)	GI50 (K-562 leukemia) [µM]	TGI (K-562 leukemia) [µM]	GI50 (SN12C renal) [µM]	TGI (SN12C renal) [µM]	TGI (HS 578T breast) [µM]	GI50 (SK-MEL-28 melanoma)	TGI (SK-MEL-28 melanoma) [µM]	TGI (NCI/ADR-RES ovarian) [µM]	GI50 (T-47D breast) [µM]	TGI (T-47D breast) [µM]	GI50 (HS 578T breast) [µM]	GI50 (NCI/ADR-RES ovarian) [µM]
O=c1c(Oc2ccc(F)cc2F)cc2cnc(NC3CCOCC3)nc2n1CCCO	> 11.3	> 21.1	> 25	> 25 µM	> 25	> 25	> 25	> 25	> 25	> 25 µM	> 25	> 25	> 25	> 25	> 25	> 25
COc1cc(C#Cc2ccc(=O)oc2C#Cc2ccccc2)cc(OC)c1OC	1.51	3.04			3.67	> 40.4	1.75	3.5	43.9	2.64 µM	7.22	18.9	2.27	6.22	5.83	6.39
CC(=O)O[C@H]1CC[C@@]2(C)C(=CC[C@H]3[C@@H]4CC[C@H](c5cc(C(F)(F)F)n(C(C)=O)n5)[C@@]4(C)CC[C@@H]32)C1		3.23		14.5 µM		12.5		20.8	> 60.8		28.9	24		25		
S=C(Nc1ccc(Br)cc1)Nc1ccc(Br)cc1	12.7	> 100	7.82	> 100 µM	3.62	> 100	9.72	> 100	> 100	49.8 µM	> 100	> 100	2.99	> 100	85	4.32
Cc1ccc(S(=O)(=O)NC(=O)C2C(=O)CC3(CCCCC3)CC2=O)cc1		60.4		32.2 µM		> 100		86.4	> 100			37.9		> 100		
CCC12CCCN(Cc3ccccc3)C1c1c([nH]c3ccccc13)C(C(=O)OC)C2 (centres undefined)				> 10 µM		> 10		> 10	> 10		> 10	> 10		> 10		
COc1ccc(C(=O)/C=C/c2ccc(C)cc2)cc1OC	11	26.8	10.1	21.6 µM	8.31	50.2	13.1	26.9	30.3	16.5 µM	30.1	28.3	3.05	15.8	12.5	11.7
COC(=O)CCc1c[nH]c2ccc(N(CCCl)CCCl)cc12	4.81	> 42.6	3.5	19.4 µM	9.68	> 100	0.688	36.4	50.1	10.5 µM	33.6	> 56.8	1.16	16.4	15.1	2.3
CCC[CH2][Sn]([CH2]CCC)([CH2]CCC)[O]c1ccc(Cl)cc1Cl	0.0572	0.203	0.16	0.31 µM	0.12	0.408	0.142	0.303		0.162 µM	0.302	0.312	0.128	0.307		0.141
FC(F)(F)c1nc2nc(Cl)c(Cl)nc2n1CCCN1CCOCC1				> 100 µM		39.6		> 100	> 100		> 100	> 100		> 100		
Cc1ccc(-c2csc(/N=C3\C(=O)Nc4ccccc43)n2)cc1	1.96	22.4	1.31	3.23 µM	1.73	> 100			6.66	1.47 µM	3.03	> 100	1.36	4.46	1.97	20.7
Nc1ccccc1C(=O)CC1OC(=O)c2ccccc21 (centres undefined)		> 100				> 100		> 100	> 100		> 100	> 100		> 100		
CCc1cccc(C)c1NC(=O)c1sc2nc3c(cc2c1N)CCCCC3	6.08	> 100	2.98	15.2 µM			6	> 100	> 100	12 µM	> 100	14.1	4.65	> 100	4.87	2.36
CC(C(=O)c1ccccc1)C(c1ccccc1)N1CCOCC1 (centres undefined)				> 100 µM		> 100		> 100	> 100		> 100	> 100		> 100		
C=C(c1ccc2nc(NC(=O)OC)[nH]c2c1)c1cccs1		> 62.4		> 100 µM		> 35.5		> 100	> 100		> 100	0.87				
C=C1C(O)C2C(=C(CCc3ccccc3)C13CC3)C(=O)C(C)(CO)C2O (centres undefined)	> 100	> 100	> 100	> 100 µM	> 100	> 100	> 100	> 100	99.8	> 100 µM	> 100	> 100			14.3	> 100
COc1cc(NC(N)=NCCC(C)(C)Oc2ccc(C(F)(F)F)cc2)ncc1C#N	1.48	2.85	1.58	3.06 µM			1.85	3.35		1.83 µM	3.23	3.24	1.56	3.29		1.66
